The subject of one series is Slc:SD rats. Description: Water-immersion stress ulceration method (antiulcer activity). It is filed as in vivo, rat (male Slc:SD). Conditions: 30 minutes before stress loading; for U.I. (ulcer index) Mean ± S.E.: non-treated control 13.4 ± 2.71. The method, then: After stress loading for 7 hours, the rats were killed through exsanguination, and the stomachs were removed, perfused in the inside with 10 ml of 2% formalin and then immersed in the same solution for 10 minutes for fixation. The stomachs were incised along the greater curvature, and the ulcers thus induced were measured for length under the stereoscopic microscope (magnification×10), whereby the total sum of the lengths was taken as an ulcer index (U.I., in mm). The test substance was given orally to rats in the form of a 4% gum arabic suspension 30 minutes before stress loading.

The next series is described as follows: Acute toxicity. Conditions: mouse, in vivo; mice, oral, single dose, observed for 7 days. On the set-up: species or system mouse (male ddY). An excerpt:
A group of five male ddY mice (4-weeks aged) was used for testing.
The compound of Example 4 was suspended in 4% gum arabic solution to prepare a test pharmaceutical, which was given orally to each test animal once.

Setting [1] is: 30 mg/kg orally, test substance marked *p < 0.05.

The structures appear in SMILES notation.

As to `CN/C(=N/CCSCc1nc[nH]c1C)NC#N` [Cimetidine, reference compound], in the series on Slc:SD rats (30 mg/kg orally), the “U.I. (ulcer index) Mean ± S.E.” value worked out at 5.2 ± 3.40 mm. In addition, the Inhibition rate with Slc:SD rats (setting [1]) is listed as 61.4%.
In the case of `Cc1ccc(Nc2ccccc2NC(=O)C[n+]2ccccc2)cc1.[Cl-]` [Example 4, 1-[2-[[2-[(4-methylphenyl)amino]phenyl]amino]-2-oxoethyl]pyridinium chloride], the Inhibition rate amounted to 19.0% in the series on Slc:SD rats (10 mg/kg orally); 75.1% with Slc:SD rats (setting [1]); 90.0% in the series on Slc:SD rats (100 mg/kg orally, marked **p < 0.01). Further, the “U.I. (ulcer index) Mean ± S.E.” value is listed as 10.8 ± 3.15 mm in the series on Slc:SD rats (10 mg/kg orally), 3.3 ± 1.82 mm in the series with Slc:SD rats (30 mg/kg orally) and 1.3 ± 0.88 mm in the series with Slc:SD rats (100 mg/kg orally). Moreover, in the series “Acute toxicity”, the LD50 at 168 h is at least 2000 mg/kg.

These data come from US5055469A, “Quaternary pyridinium salts useful for ulcer treatment” (Hamari Chemicals, Ltd., priority 1988, dated 1991).
